Starred links: 1 amine or outer side, 2 acyl side, 3 side chain; linkers in the order of their positions; H or OH if unused. Positions of bridges follow the written chain, without caps; N, C: chain ends. Residues, ends and D or L forms follow the SMILES beside them. *: point of attachment. 5FAM = O=C1OC2(c3ccc(O)cc3Oc3cc(O)ccc32)c2ccc(C(=O)*)cc21; CH2CH2CO = O=C(CC[*:1])[*:2]

Data on two compounds can be found in patent US12460317B2 (The Texas A&M University System, priority 2019, dated 2025).

For experiment [1] the following is noted: physiological conditions; cited from earlier work.
For the next experiment, the target named is HDAC8 (Homo sapiens, UniProt Q9BY41). In words: biochemical.
Sequence of HDAC8 (Q9BY41 whole entry): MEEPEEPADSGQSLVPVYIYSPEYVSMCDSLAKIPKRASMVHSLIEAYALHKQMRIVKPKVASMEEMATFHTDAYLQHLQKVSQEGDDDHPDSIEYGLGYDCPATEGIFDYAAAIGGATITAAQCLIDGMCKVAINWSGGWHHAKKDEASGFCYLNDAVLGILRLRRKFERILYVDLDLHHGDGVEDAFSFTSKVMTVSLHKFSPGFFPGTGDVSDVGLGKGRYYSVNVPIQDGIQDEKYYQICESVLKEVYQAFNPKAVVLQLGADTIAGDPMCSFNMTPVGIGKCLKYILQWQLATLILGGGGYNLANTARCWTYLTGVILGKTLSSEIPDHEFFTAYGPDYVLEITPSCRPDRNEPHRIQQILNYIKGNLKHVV

Procedure for HDAC8: Applicants incubated a 25 nM 5-FAM-conjugated cyclic peptide and different concentrations of a target protein (160 nM to 160 μM) in black 96-well plates in a 200 μL total volume that was adjusted by adding a PBS buffer. The fluorescence polarization was measured in a microplate reader at Ex/Em=490 nm/520 nm.

Regarding `C=CC(=O)NCCCC[C@H](N)C(=O)O` [AcrK, N^ε-acryloyl-lysine], in experiment [1], the “second-order rate constant of reaction with a thiol” value was 0.004 M⁻¹ s⁻¹.
Turning to `CSCC[C@@H]1NC(=O)[C@H](Cc2c[nH]c3ccccc23)NC(=O)[C@H](CC(C)C)NC(=O)[C@H](CO)NC(=O)[C@H](CCC(N)=O)NC(=O)[C@@H](N)CSCCC(=O)NCCCC[C@@H](C(=O)N[C@@H](CCCCNC(=O)c2ccc3c(c2)C(=O)OC32c3ccc(O)cc3Oc3cc(O)ccc32)C(N)=O)NC(=O)[C@H](CC(N)=O)NC1=O` [CycH8a, CQSLWMNX] (H-CQSLWMNKK(5FAM)-NH2; linker 1-8 via CH2CH2CO), binding at HDAC8 was characterised by a dissociation constant (Kd) of 7.1 µM.

Usually Kd stands for a measure of binding affinity in units of concentration. Low readings indicate a tighter complex, high ones a looser complex.
